Experimental data: US4551472A, “Unsymmetrical bis-carbamate compounds” (priority 1984, dated 1985)

Key:
[1] = tested on: root-knot nematode, Meloidogyne incognita var. acrita; assay: Nematocide Test; also: key: 1: severe galling, equal to untreated plants; 2: moderate galling; 3: light galling; 4: very light galling; 5: no galling, perfect control; format: in vivo; conditions: 3.33 m.g. per jar; cucumber, approximately 3 weeks
Experimental: The test organism used was the infective migratory larvae of the root-knot nematode, Meloidogyne incognita var. acrita, reared in the greenhouse on roots of cucumber plants. Infected plants were removed from the culture, and the roots are chopped very finely. A small amount of this inoculum was added to a pint jar containing approximately 180 cc. of soil. The jars were capped and incubated for one week at room temperature. During this period eggs of the nematode were hatched, and the larval forms migrated into the soil.
Ten ml. of the test formulation were added to each of the two jars for each dosage tested. Following the addition of chemical, the jars were capped, and the contents thoroughly mixed on a ball mill for 5 minutes.
The test compounds were formulated by a standard procedure of solution in acetone addition of an emulsifier, and dilution with water. Primary screening tests were conducted at 3.33 m.g. of the test compound per jar.
The jars were left capped at room temperature for a period of 48 hours, and the contents then transferred to 3 inch pots. Subsequently, the pots were seeded to cucumber as an indicator crop and placed in the greenhouse where they were cared for in the normal fashion for approximately 3 weeks.
The cucumber plants were then taken from the pots, the soil removed from the roots; and the amount of galling visually rated.
In the test for activity against nematodes (nem) activity was rated as follows: […]

[2] = Mammalian Toxicity, peroral toxicity to rat; format: in vivo; conditions: in vivo, po, read-out: A.O. Rat LD50
Experimental: Certain compounds were also evaluated to determine their peroral toxicity to mammals by conventional methods. The representative animal selected for this experiment was the rat.

Bean = assay: Phytotoxicity Test, bean; conditions: 2500 ppm spray, ten days
Experimental: (§1) Experiments were also conducted to determine the phytotoxicity of representative compounds with respect to healthy fresh plants. […] The test plants were sprayed in accordance with the procedure described above for the Mite Foliage Spray Test so as to deliver approximately 100 milliliters of test solution to the leaves of each plant tested. The sprayed plants and controls were set aside for approximately one hour to allow the foliage to dry and were then placed in the greenhouse. After ten days the plants were visually inspected to determine the extent of foliage injury. A rating of 1 indicates no perceptible injury; 5 indicates the plant was dead and ratings of 2, 3 and 4 indicate intermediate degrees of injury based upon the number and extent to which leaves were injured.

Soy = assay: Phytotoxicity Test, soy; conditions: 2500 ppm spray, ten days
Experimental: as §1

Tom = assay: Phytotoxicity Test, tomato; conditions: 2500 ppm spray, ten days
Experimental: as §1

Corn = assay: Phytotoxicity Test, corn; conditions: 2500 ppm spray, ten days
Experimental: as §1

Cotton = assay: Phytotoxicity Test, cotton; conditions: 2500 ppm spray, ten days
Experimental: as §1

Structure (SMILES)	Biological Activity: Nem (nematode, galling rating) [1]	LD50 [2] [mg/kg]	Phytotoxicity: Bean (Bean)	Phytotoxicity: Soy (Soy)	Phytotoxicity: Tom (Tom)	Phytotoxicity: Corn (Corn)	Phytotoxicity: Cotton (Cotton)
CSC(C)=NOC(=O)N(C)SN(C)C(=O)ON=CC(C)(C)SC [Example I, N-[2-Methylthio-2-methylpropionaldehyde O-(N-methylcarbamoyl)oxime]N-[1-methylthioacetaldehyde O-(N-methylcarbamoyl)oxime]sulfide]	5	2.1	2	1	1	1	2
CN(SN(C)C(=O)ON=C1SC(C)(C)C(=O)N1C)C(=O)ON=C1CSCCS1 [Example III, N-[2-(O-(N-methylcarbamoyl)oximino]-1,4-dithiane]-N-[2-O-(N-methylcarbamoyl)oximino-3,5,5-trimethylthiazolidin-4-one]sulfide]	1	160	1	2	1	2	2
C#CCOC(=O)N(C)SN(C)C(=O)ON=C1SC(C)(C)C(=O)N1C [IV, N-[N-methyl-N-propargyloxycarbonylamino]N-[3,5,5-trimethylthiazolidin-4-one-2 O-(N-methylcarbamoyl)oxime]sulfide]	1		1	2	2	1	2
CSC(C)=NOC(=O)N(C)SN(C)C(=O)ON=C(SC)C(=O)N(C)C [XI, N-[1-Methylthioacetaldehyde O-(N-methylcarbamoyl)oxime]N-[1-methylthio-N', N'-dimethylcarbamoylformaldehyde O-(N-methylcarbamoyl)oxime]sulfide]		14.1	1	1	1	1	2
CCC(C)c1cc([N+](=O)[O-])cc([N+](=O)[O-])c1OC(=O)N(C)SN(C)C(=O)ON=C(C)SC (stereo not drawn) [XIX, N-[1-Methylthioacetaldehyde O-(N-methylcarbamoyl)oxime]N-[2,4-dinitro-6-sec-butylphenyl-(N-methylcarbamoyloxy)]sulfide]	1		1	2	2	2	2
CSC(C)=NOC(=O)N(C)SN(C)C(=O)ON=C(C)C(=O)c1ccccc1 [XLI]	1		1	1	1	1	1
CSC(C)=NOC(=O)N(C)SN(C)C(=O)ON=C1SCSCS1 [XL]	5		1	1	1	1	1
CSC(C)=NOC(=O)N(C)SN(C)C(=O)Oc1cccc(N(C)C)c1 [XX, N-[1-Methylthioacetaldehyde O-(N-methylcarbamoyl)oxime]N-[3-(N',N'-dimethylamino)phenyl-(N-methylcarbamoyloxy)]sulfide]	4		1	2	1	1	2
CSC(C)=NOC(=O)N(C)SN(C)C(=O)Oc1ccc(NC=O)c(C)c1 [XXI, N-[1-Methylthioacetaldehyde O-(N-methylcarbamoyl)oxime]N-[4-formylamino-3-methylphenyl-(N-methylcarbamoyloxy)]sulfide]	4		1	1	1	1	1
CSC(C)=NOC(=O)N(C)SN(C)C(=O)Oc1ccc(C(C)(C)C)cc1Cl [XXIX]	5		1	1	1	1	1
CC(C)c1ccc(OC(=O)N(C)SN(C)C(=O)ON=C2CSCCS2)cc1 [XXV, N-[2-O-(N-methylcarbamoyl)oximino-1,4-dithiane]N-[4-isopropyl-(N-methylcarbamoyloxy)benzene]sulfide]			1	1	1	1	3
CSC(C)=NOC(=O)N(C)SN(C)C(=O)Oc1cccc(C(C)C)c1 [XXVIII]		40	1	2	1	1	2
C#CCOC(=O)N(C)SN(C)C(=O)Oc1ccc(C)c(C)c1 [XXVII]	5		1	2	1	1	2
C#CCOC(=O)N(C)SN(C)C(=O)Oc1cccc2ccccc12 [XXVI]	4		1	2	1	1	1
C=CCc1ccc(OC(=O)N(C)SN(C)C(=O)ON=C(C)SC)c(OC)c1 [XXXIII]	5		1	1	1	1	3
CSC(C)=NOC(=O)N(C)SN(C)C(=O)Oc1ccc(-c2ccccc2)cc1 [XXXII]	4		2	1	1	1	2
CSC(C)=NOC(=O)N(C)SN(C)C(=O)Oc1ccc(Oc2ccccc2)cc1 [XXXIV]		> 640	1	1	1	1	1
CSC(C)=NOC(=O)N(C)SN(C)C(=O)Oc1ccccc1OC(C)C [XXXVIII]		63.5	1	2	1	1	1
CSC(C)=NOC(=O)N(C)SN(C)C(=O)Oc1ccccc1C1OCCO1 [XXXVII]	4		2	2	1	1	2
CSC(C)=NOC(=O)N(C)SN(C)C(=O)Oc1cccc(Oc2ccccc2)c1 [XXXV]			1	1	1	1	1
CCCCCCCCCCCCc1ccc(OC(=O)N(C)SN(C)C(=O)ON=C(C)SC)cc1 [XXX]	4		1	1	1	1	2
